Results from patent US9550742B2, “11-OXO-10,11-dihydrodibenzo[B,F][1,4]thiazepine S-oxide derivatives and their use as dopamine D2 receptor antagonists” (The United States of America, as Represented by the …, priority 2013, dated 2017).

Tests used:
D2 GPCR receptor (DAR) = biological target: T1, D2 GPCR receptor (DAR) (Homo sapiens, UniProt P14416); assay: D2 beta-arrestin functional assay (PathHunter, CHO); type: cell-based
T1 construct: host or cells: CHO PathHunter β-arrestin cells
Excerpt: For a secondary-screen and selectivity assays, DAR PathHunter® β-arrestin GPCR cell lines from DiscoveRx (Fremont, Calif.). In this) were used. In the D2 Receptor PathHunter® β-arrestin GPCR cell line, the D2 GPCR receptor (DAR) is overexpressed and fused with a small 42-amino acid fragment of β-galactosidase called ProLink™ on a CHO cellular background expressing a fusion protein of β-arrestin and a larger N-terminal deletion mutant of β-galactosidase (“enzyme acceptor”). When DAR is activated by dopamine, it stimulates binding of β-arrestin to the ProLink-tagged DAR and the two complementary parts of β-galactosidase form a functional enzyme. When substrate (PathHunter® Detection reagent) is added, β-galactosidase hydrolyzes it and generates a chemiluminescent signal.
D2 Receptor PathHunter® β-arrestin cells were seeded at 2,100 cells/well in 3 μL/well media (DiscoveRx Plating Reagent 2) with MultiDrop Combi dispenser (Thermo Scientific, Logan, Utah) onto white tissue culture treated 1,536-well Aurora plates (Brooks Automation, Chelmsford, Mass.) and allowed to attach overnight at 37° C., 5% CO2. Next, 23 nL/well of compound solutions in DMSO were added with a pintool transfer (Kalypsis, San Diego, Calif.). The cells were stimulated by compounds for 90 min at 37° C., 5% CO2, after which 1.5 μL/well of DiscoveRx detection reagent was added with BioRAPTR FRD dispenser. The detection reagent was prepared by mixing of Galacton Star Substrate, Emerald II solution and PathHunter buffer (supplied by the assay kit) together at a 1:5:19 proportion just prior to dispensing. The plates were incubated at ambient temperature for 1 hr, and the luminescent signal was read on a ViewLux plate reader (PerkinElmer, Waltham, Mass.).

[1] = biological target: D3 human dopamine receptors (Homo sapiens, UniProt P35462); assay: D3 binding assay ([^3H]methylspiperone, HEK293 membranes)
Procedure: Cells were cultured in Dulbecco's modified Eagle's Medium containing 10% FBS, 1,000 units/mL Penicillin, 1,000 mg/mL Streptomycin, 100 mM Sodium Pyruvate, 1 μg/mL Gentamicin, and […] G418. All cells were maintained at 37° C. in 5% CO2 and 90% humidity. For radioligand binding assays, cells were removed mechanically using calcium and magnesium-free Earle's Balanced Salt Solution (EBSS(−)). Intact cells were collected by centrifugation and then lysed with 5 mM Tris-HCl and 5 mM MgCl2 at pH 7.4 in a glass homogenizer. […] Membrane preparations were incubated for 90 min at room temperature with various concentrations of radioligand in a reaction volume of 250 μL EBSS containing 200 mM sodium metabisulfite. […] Bound ligand was separated from unbound by filtration through GF/C filters using a PerkinElmer cell harvester with ice cold EBSS (4 washes) and quantified on a Top-count (PerkinElmer) after addition of scintillation solution. […] In order to determine the affinity of a given compound for a receptor type, competition-binding assays were performed. […] Reactions were incubated, terminated, and quantified as indicated above.

Alpha2C = Alpha2C (Homo sapiens, UniProt P18825); assay: Affinity profile panel: Alpha2C; conditions: inhibition of binding
Beta2 = Beta2 (Homo sapiens, UniProt P07550); assay: Affinity profile panel: Beta2; conditions: inhibition of binding
D2 receptor = biological target: T2, D2 receptor (Rattus norvegicus, UniProt P61169); assay: Sumanirole-induced hypothermia; type: in vivo; conditions: rats, subcutaneously
T2 construct: from tissue; host or cells: live rats (whole animal)
Excerpt: These experiments test the ability of a compound of Formula I, ML321, to affect physiological or behavioral responses in rats that are mediated by D2 or D3 receptors. Sumanirole, an agonist of the D2 receptor, produces hypothermia in rats when administered subcutaneously. This response is known to be mediated by the D2 receptor and not the D3 receptor (Collins et al., Psychopharmacology (Berl). 2007, 193(2):159-70).
(§1) The sumanirole-induced hypothermia and pramipexole-induced yawning experiments show ML321 can act selectively to block the D2 receptor without blocking the D3 receptor when administered to living animals. Thus, the D2 selectivity identified using cellular assays can also be seen in living animals.

D3 receptor = biological target: T3, D3 receptor (Rattus norvegicus, UniProt P19020); assay: Pramipexole-induced yawning; type: in vivo; conditions: rats, 3.2 and 10 mg/kg
T3 construct: from tissue; host or cells: live rats (whole animal)
Excerpt: Pramipexole, an agonist of the D3 receptor, produces yawning when administered subcutaneously. This response is known to be mediated by the D3 receptor and not the D2 receptor (Collins, Id.).
as §1

T1 sequence (P14416 whole entry): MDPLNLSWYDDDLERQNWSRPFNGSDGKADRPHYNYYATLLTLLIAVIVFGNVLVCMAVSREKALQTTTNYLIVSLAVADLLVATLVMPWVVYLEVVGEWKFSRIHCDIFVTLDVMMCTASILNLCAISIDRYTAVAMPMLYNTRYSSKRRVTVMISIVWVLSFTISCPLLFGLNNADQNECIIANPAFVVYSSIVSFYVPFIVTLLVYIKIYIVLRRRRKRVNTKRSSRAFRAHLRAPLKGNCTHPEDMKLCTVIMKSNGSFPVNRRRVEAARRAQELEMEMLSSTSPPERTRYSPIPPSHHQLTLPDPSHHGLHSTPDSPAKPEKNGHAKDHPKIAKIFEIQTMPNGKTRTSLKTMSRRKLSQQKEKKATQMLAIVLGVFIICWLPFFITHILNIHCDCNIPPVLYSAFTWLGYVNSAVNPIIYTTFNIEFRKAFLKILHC
T2 sequence (P61169 whole entry): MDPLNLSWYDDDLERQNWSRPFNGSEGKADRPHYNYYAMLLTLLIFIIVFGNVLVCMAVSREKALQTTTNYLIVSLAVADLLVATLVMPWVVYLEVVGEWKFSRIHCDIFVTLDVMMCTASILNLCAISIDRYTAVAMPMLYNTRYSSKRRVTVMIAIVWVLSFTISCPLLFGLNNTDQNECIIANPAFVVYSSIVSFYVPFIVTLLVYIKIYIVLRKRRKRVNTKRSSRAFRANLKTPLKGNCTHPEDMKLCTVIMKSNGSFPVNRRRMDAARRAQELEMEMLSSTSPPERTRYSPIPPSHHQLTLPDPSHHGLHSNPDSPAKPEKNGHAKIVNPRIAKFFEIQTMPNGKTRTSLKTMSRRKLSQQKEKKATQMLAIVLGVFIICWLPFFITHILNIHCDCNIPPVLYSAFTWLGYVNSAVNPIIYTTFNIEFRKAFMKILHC
Sequence of Beta2 (P07550 whole entry): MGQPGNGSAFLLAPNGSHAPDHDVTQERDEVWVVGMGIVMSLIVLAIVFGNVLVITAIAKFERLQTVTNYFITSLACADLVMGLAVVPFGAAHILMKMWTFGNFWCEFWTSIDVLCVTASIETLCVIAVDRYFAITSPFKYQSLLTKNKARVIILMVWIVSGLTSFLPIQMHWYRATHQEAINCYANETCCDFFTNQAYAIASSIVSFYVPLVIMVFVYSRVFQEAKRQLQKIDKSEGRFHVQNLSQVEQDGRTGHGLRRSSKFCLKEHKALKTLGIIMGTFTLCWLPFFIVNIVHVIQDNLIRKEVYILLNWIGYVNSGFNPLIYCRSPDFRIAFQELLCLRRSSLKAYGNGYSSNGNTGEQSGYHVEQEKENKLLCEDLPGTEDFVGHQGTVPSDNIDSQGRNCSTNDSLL
Sequence of D3 human dopamine receptors (P35462 whole entry): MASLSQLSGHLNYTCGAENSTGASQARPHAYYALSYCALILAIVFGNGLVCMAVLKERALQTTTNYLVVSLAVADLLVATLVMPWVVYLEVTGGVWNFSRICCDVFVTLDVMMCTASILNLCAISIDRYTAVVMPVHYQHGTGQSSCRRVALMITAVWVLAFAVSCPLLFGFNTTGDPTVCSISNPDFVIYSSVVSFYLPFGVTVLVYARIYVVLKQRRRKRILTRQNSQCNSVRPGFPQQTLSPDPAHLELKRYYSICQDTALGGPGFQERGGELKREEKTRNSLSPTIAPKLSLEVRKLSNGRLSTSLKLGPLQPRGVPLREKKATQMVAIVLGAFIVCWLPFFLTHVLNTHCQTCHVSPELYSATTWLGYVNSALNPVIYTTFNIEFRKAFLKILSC
T3 sequence (P19020 whole entry): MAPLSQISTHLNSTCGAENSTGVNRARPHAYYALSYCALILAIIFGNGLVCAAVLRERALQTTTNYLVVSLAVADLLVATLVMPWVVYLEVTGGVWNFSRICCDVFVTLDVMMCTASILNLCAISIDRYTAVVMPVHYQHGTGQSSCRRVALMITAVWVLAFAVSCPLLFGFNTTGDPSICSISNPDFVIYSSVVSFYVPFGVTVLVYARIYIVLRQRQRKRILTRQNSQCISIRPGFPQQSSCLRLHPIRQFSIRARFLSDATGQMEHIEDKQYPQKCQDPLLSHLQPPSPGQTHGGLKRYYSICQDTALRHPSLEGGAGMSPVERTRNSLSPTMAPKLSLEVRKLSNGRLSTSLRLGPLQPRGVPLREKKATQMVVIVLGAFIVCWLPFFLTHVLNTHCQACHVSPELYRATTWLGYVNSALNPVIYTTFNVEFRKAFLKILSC
Sequence of Alpha2C (P18825 whole entry): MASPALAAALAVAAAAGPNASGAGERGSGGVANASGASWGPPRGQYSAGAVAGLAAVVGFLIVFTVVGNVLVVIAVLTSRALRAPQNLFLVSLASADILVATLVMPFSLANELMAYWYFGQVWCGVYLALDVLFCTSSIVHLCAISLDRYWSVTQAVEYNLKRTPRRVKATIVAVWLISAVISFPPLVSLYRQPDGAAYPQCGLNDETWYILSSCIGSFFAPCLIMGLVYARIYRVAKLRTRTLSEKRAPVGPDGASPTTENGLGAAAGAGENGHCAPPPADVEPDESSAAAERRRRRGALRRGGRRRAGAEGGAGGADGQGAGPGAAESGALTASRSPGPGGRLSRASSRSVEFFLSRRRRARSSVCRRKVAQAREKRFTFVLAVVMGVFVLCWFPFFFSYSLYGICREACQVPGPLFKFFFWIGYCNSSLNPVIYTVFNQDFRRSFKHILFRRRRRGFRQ

Compound: CN1C(=O)c2ccccc2[S@+]([O-])c2ccc(C(=O)NCCc3cccs3)cc21 [Compound 55, 10-Methyl-11-oxo-N-(2-(thiophen-2-yl)ethyl)-10,11-dihydrodibenzo[b,f][1,4]thiazepine-8-carboxamide 5-(S)-oxide]
- AC50 (D2 GPCR receptor (DAR); dose response curve, read-out: D2 β-arrestin assay AC50): 725 nM
- D3/D2 beta-arrestin IC50ratio (D2 GPCR receptor (DAR); ratio of D3 (Example 4) to D2 (Example 2) beta arrestin assay): 17.8
- Ki [1]: 2900 nM
- Inhibition (%) Alpha2C (Alpha2C): 20.9%
- Inhibition (%) Beta2 (Beta2): −13.2%
- Block of sumanirole-induced hypothermia response (D2 receptor; 10 mg/kg): completely blocked
- Block of sumanirole-induced hypothermia response (D2 receptor; 3.2 and 10 mg/kg): significantly and dose-dependently block the sumanirole-induced hypothermia response
- Effect on pramipexole-induced yawning (D3 receptor): no effect on pramipexole-induced yawning
